Laboratory results: US20220017971A1, “COMPOSITION FOR PREDICTING CHEMOTHERAPY RESISTANCE OF OVARIAN CANCER AND USE THEREOF” (KOOKMIN UNIVERSITY INDUSTRY ACADEMY COOPERATION FOUNDATION, priority 2020, published 2022)

Key:
Type in all cases: cell-based
PCNA [1] = test: PCNA expression (qPCR, immunofluorescence), ES2; conditions: ES2 cells; for PCNA expression: anticancer drug alone; for PCNA expression reduced by cisplatin: combined treatment with cisplatin
Description: (§1) cDNA was synthesized from 1 μg of RNA using AccuPower RT PreMix (Bioneer, Daejeon, Korea). Gene expression was measured using SYBR Green (Sigma) and the StepOnePlus Real-Time PCR system (Applied Biosystems, Foster City, Calif.). PCR conditions were incubated at 95° C. for 3 minutes, then 95° C. 30 seconds, 60° C. 30 seconds, and 72° C. 3 minutes conditions were amplified 40 times, and normalized based on the GAPDH expression level.
(§2) Transfected epithelial ovarian cancer cells were fixed with methanol for 10 minutes and treated with PCNA antibody diluted in 1:100. After that, after washing twice with PBS containing 0.1% bovine serum albumin (BSA), the secondary antibody goat anti-mouse IgG Alexa 488 (catalog number: A11017, Invitrogen, Carlsbad, Calif.) was added to antibody dilution buffer so as to be diluted in 1:200 and incubated for 1 hour at room temperature.
(§3) After washing the cells with 0.1% BSA-PBS, DAPI staining was additionally performed to allow simultaneous observation of the target protein as well as the nucleus. After finishing the experiment, cells were observed and photographed using an LSM710 (Carl Zeiss, Thornwood, N.Y., USA) confocal microscope.

ES2 cells [2] = test: Cell proliferation capacity using BrdU, ES2; conditions: for proliferative capability (BrdU incorporation): agent alone; for proliferative capability reduced by cisplatin (BrdU): combined treatment with cisplatin; for proliferative capability reduced by paclitaxel (BrdU): combined treatment with paclitaxel
Description: (§4) Epithelial ovarian cancer OV90 and ES2 cells were cultured in 6 wells, and a non-specific control and target oligonucleotide were transfected using Lipofectamine 2000 (Invitrogen). All oligonucelotides were synthesized by to Bioneer. Oligonucleotide and Lipofectamine 2000 were diluted in Opti-MEM reduced serum medium (Gibco, Cat No: 32985070) and then treated with cells. After 6 h of incubation at 37° C. in a 5% CO2 incubator, the medium was replaced with a medium containing FBS.
(§5) An experiment was performed according to the manufacturer's manual using the BrdU kit (Cat No: 1167229001, Roche) to confirm the change in the proliferation ability of epithelial ovarian cancer cells. After 48 hours of incubation, 10 μM BrdU was additionally added to each well and incubated for 2 hours at 37° C./5% CO2 in an incubator. After labeling the epithelial ovarian cancer cells with BrdU and fixing the cells, they were incubated with anti-BrdU-POD solution at room temperature for 90 minutes, and then washed three times. Finally, the cells were reacted with 100 μl of 3,3′, 5,5′-tetramethylbenzidine substrate, and the cell proliferation ability was analyzed by measuring the absorbance at 370 nm and 492 nm using an ELISA reader.

PCNA [3] = test: PCNA expression (qPCR, immunofluorescence), OV90; conditions: OV90 cells; for PCNA expression: anticancer drug alone; for PCNA expression reduced by cisplatin: combined treatment with cisplatin
Description: as §1, §2, §3

OV90 cells [4] = test: Cell proliferation capacity using BrdU, OV90; conditions: for proliferative capability (BrdU incorporation): agent alone; for proliferative capability reduced by cisplatin (BrdU): combined treatment with cisplatin; for proliferative capability reduced by paclitaxel (BrdU): combined treatment with paclitaxel
Description: as §4, §5

ES2 cells [5] = test: Intracellular ROS measurement using DCFH-DA, ES2
Description: (§6) ES2 and OV90 cells were collected through trypsin and centrifuged to obtain a cell pellet. After washing once with PBS, 10 μM of DCFH-DA was incubated in an incubator at 37° C. for 30 minutes. Thereafter, the cells were washed twice with PBS, and a miR-214-3p inhibitor was added thereto and incubated in an incubator at 37° C. for 1 hour. Treated cells were washed again with PBS and analyzed for DCF fluorescence intensity using flow cytometry.

OV90 cells [6] = test: Apoptosis by annexin V and propidium iodide staining, OV90
Description: (§7) In order to confirm the change in the apoptosis effect of epithelial ovarian cancer cells, an experiment was performed using the FITC Annexin V cell death diagnostic kit I (BD Biosciences). Using trypsin, the cells were removed from the culture dish, washed with PBS, and the cells were slowly mixed using 1 mL of 1× binding buffer and then centrifuged to obtain a cell pellet.
(§8) Next, the cells were suspended and cultured with 200 μL of 1× binding buffer, put into 100 μL of a brown 1.5 mL tube, and cells were mixed with 5 μL of Annexin V and 5 μL of PI, and then stained at room temperature for 15 minutes. After that, 400 μL of 1×binding buffer was added and the stained solution was transferred to a 5 mL FACS tube, and then the fluorescence intensity was analyzed using a flow cytometer to measure the number of apoptotic cells.

OV90 cells [7] = test: Intracellular calcium concentration by fluo-4 staining, OV90
Description: (§9) To check the intracellular calcium concentration of ovarian cancer cells, 3 μM of fluo-4 acetoxymethyl ester (AM) (Invitrogen) was used. First, 5×10^5 cells were cultured in 6 wells. Thereafter, the miR-214-3p inhibitor was dose-dependently treated and cultured in a 37° C./5% CO2 incubator for 48 hours. After that, cells were removed from the culture dish using trypsin, washed with PBS, and stained with 3 μM fluo-4 in an incubator at 37° C./5% CO2 for 20 minutes, washed with PBS, and then the stained solution was transferred into a FACS tube and the fluorescence intensity was analyzed using a flow cytometer to […].

ES2 cells [8] = test: Mitochondrial membrane potential by JC-1 staining, ES2
Description: (§10) JC-1 mitochondrial membrane potential (MMP) changes were measured using a mitochondria staining kit (Cat No: CS0390, Sigma-Aldrich). 5×10^5 ES2 and OV90 cells were each aliquoted into 6 wells, and the cells were cultured until 70 to 80% abundance of the culture dish appeared. Thereafter, the miR-214-3p inhibitor was dose-dependently treated and cultured in a 37° C./5% CO2 incubator for 48 hours. Thereafter, cells were collected from the culture dish using trypsin and centrifuged to obtain a cell pellet. Cells were dissolved in JC-1 staining solution and incubated for 20 minutes at 37° C./5% CO2 incubator. The stained cells were centrifuged again, washed with 1×JC-1 staining buffer, and then fluorescence intensity was analyzed using a flow cytometer.

ES2 cells [9] = test: Intracellular calcium concentration by fluo-4 staining, ES2
Description: as §9

OV90 cells [10] = test: Cell cycle analysis using propidium iodide staining, OV90; conditions: 48 hours
Description: (§11) In order to confirm the cell cycle change of ovarian cancer cells by the miR-214-3p inhibitor, 5×10^5 cells were cultured in 6 wells until 70 to 80% abundance appeared. Thereafter, miR-214-3p inhibitors were treated in a dose-dependent manner (10, 20, 40 nM) and cultured in a 37° C./5% CO2 incubator for 48 hours. Then, using trypsin, the cells were removed from the culture dish, washed with PBS, and the cells were slowly mixed using 1 mL of 1× binding buffer, and then centrifuged to obtain a cell pellet.
(§12) Next, the cells were suspended and cultured with 200 μL of 1× binding buffer, put in 100 μL in a brown 1.5 mL tube, and 5 μL of RNase and 5 μL of PI were mixed together to stain the cells for 1 hour at room temperature. After that, 400 μL of 1× binding buffer was added, the stained solution was transferred to a 5 mL FACS tube, and the fluorescence intensity was analyzed using a flow cytometer to measure the number of cells corresponding to each cell cycle.

ES2 cells [11] = test: Cell migration, ES2
OV90 cells [12] = test: Mitochondrial membrane potential by JC-1 staining, OV90
Description: as §10

OV90 cells [13] = test: Intracellular ROS measurement using DCFH-DA, OV90
Description: as §6

OV90 cells [14] = test: Cell migration, OV90
LHX6 [15] = test: LHX6 gene expression after oligonucleotide transfection (qPCR), ES2; conditions: ES2 cells
Description: as §1, §4
(§13) Next, to analyze whether miR-214-3p can alter the characteristics of epithelial ovarian cancer cells, OV90 and ES2 cells, epithelial ovarian cancer cell lines, were transfected with a mimic for miR-214 and an inhibitor for miR-214-3p (SEQ ID NO: 2: 5′-ACUGCCUGUCUGUGCCUGCUGU-3′).

ES2 cells [16] = test: Apoptosis by annexin V and propidium iodide staining, ES2
Description: as §7, §8

ES2 cells [17] = test: Cell cycle analysis using propidium iodide staining, ES2; conditions: 48 hours
Description: as §11, §12

LHX6 [18] = test: LHX6 gene expression after oligonucleotide transfection (qPCR), OV90; conditions: OV90 cells
Description: as §1, §4, §13

[19] = combined treatment with paclitaxel

Row | Compound | PCNA expression (PCNA [1]) | proliferative capability (BrdU incorporation) (ES2 cells [2]) | PCNA expression (PCNA [3]) | proliferative capability (BrdU incorporation) (OV90 cells [4]) | PCNA expression reduced by cisplatin (PCNA [1]) | proliferative capability reduced by cisplatin (BrdU) (ES2 cells [2]) | proliferative capability reduced by paclitaxel (BrdU) (ES2 cells [2]) | PCNA expression reduced by cisplatin (PCNA [3]) | proliferative capability reduced by cisplatin (BrdU) (OV90 cells [4]) | proliferative capability reduced by paclitaxel (BrdU) (OV90 cells [4]) | also measured
1 | N.N.[Cl][Pt][Cl] [cisplatin] | significantly reduced | reduced | significantly reduced | reduced | – | – | – | – | – | – | –
2 | CC(=O)O[C@H]1C(=O)[C@@]2(C)[C@H]([C@H](OC(=O)c3ccccc3)[C@]3(O)C[C@H](OC(=O)[C@H](O)[C@@H](NC(=O)c4ccccc4)c4ccccc4)C(C)=C1C3(C)C)[C@]1(OC(C)=O)CO[C@@H]1C[C@@H]2O [paclitaxel] | reduced | reduced | reduced | reduced | – | – | – | – | – | – | –
3 | miR-214-3p inhibitor: inhibitor for miR-214-3p (SEQ ID NO: 2: 5′-ACUGCCUGUCUGUGCCUGCUGU-3′) (ACUGCCUGUCUGUGCCUGCUGU; listed as RNA, chemistry not given here) | – | inhibit the proliferative capability | – | inhibit the proliferative capability | further decreased | further reduced | further reduced | further decreased | further reduced | further reduced | reactive oxygen species (ES2 cells [5]): increased; increase of apoptotic cells (OV90 cells [6]; 40 nM, p<0.001): 2.6 fold; apoptotic cell death compared to the control group (OV90 cells [6]; transfection): significantly increased; PCNA expression reduced by paclitaxel (PCNA [1]; [19]): further decreased; intracellular calcium ions (OV90 cells [7]): increased; mitochondrial membrane potential (ES2 cells [8]): induced a change; intracellular calcium ions (ES2 cells [9]): increased; sub-G1 of the cell cycle (OV90 cells [10]): increasing; cell migration (ES2 cells [11]): reduced; PCNA expression reduced by paclitaxel (PCNA [3]; [19]): further decreased; mitochondrial membrane potential (OV90 cells [12]): induced a change; reactive oxygen species (OV90 cells [13]): increased; cell migration (OV90 cells [14]): reduced; expression of the target gene LHX6 (LHX6 [15]): increased; increase of apoptotic cells (ES2 cells [16]; 40 nM, p<0.001): 1.7 fold; apoptotic cell death compared to the control group (ES2 cells [16]; transfection): significantly increased; sub-G1 of the cell cycle (ES2 cells [17]): increasing; expression of the target gene LHX6 (LHX6 [18]): increased
4 | siLHX6: siRNA that inhibits the expression of LHX6 (SEQ ID NO: 3 sense 5′-GAG UCA UCC UUU UUC AGU A-3′, SEQ ID NO: 4 antisense) (sense GAGUCAUCCUUUUUCAGUA; antisense UACUGAAAAAGGAUGACUC; listed as RNA, chemistry not given here) | – | significantly increased | – | significantly increased | restored | restored | restored | restored | restored | restored | mRNA and protein level expression of PCNA (PCNA [1]; qPCR and immunofluorescence): significantly increased; increase of proliferative levels (ES2 cells [2]; 40 nM): 1.4 fold; mRNA and protein level expression of PCNA (PCNA [3]; qPCR and immunofluorescence): significantly increased; increase of proliferative levels (OV90 cells [4]; 40 nM): 1.4 fold
